Data as given in patent US20260241307A1, “PROCESS FOR MAKING DRUG CRYSTALS OF DESIRED SIZE DISTRIBUTION AND MORPHOLOGY” (EUPRAXIA PHARMACEUTICALS INC., priority 2019, published 2026).

Assays:
Assay type in all cases: physicochemical
[1] = Laser diffraction particle size analysis of recrystallized crystals; settings: large scale batch, recrystallized from methanol, slow evaporation, isotherm 25° C.
From the text: As used herein, laser diffraction is the methodology used for measuring and analyzing particle size and size distribution of a sample or collection of particles (e.g., the recrystallized columnar crystals and the sized crystals). More specifically, a D10 value refers to the diameter at which 10% of the sample's mass is comprised of particles with a diameter less than this value. Likewise, a D50 value is the diameter of the particle that 50% of a sample's mass is smaller than and 50% of a sample's mass is larger than the value.
In histogram, D10, D50 and D90 are intercepts for 10%, 50% and 90% of the cumulative mass in the particles size. Since the density is the same for all particles, then the mass and volume are linearly related, thus the % remains the same. The method used also reports the cumulative distribution in volume.
Different large-scale batches were run to show the reproducibility of the recrystallization method. Laser diffraction results of particle size analysis for four large scale batches are below:
(§1) The laser diffraction method assumes an equivalent sphere when calculating the results. The aspect ratio in the imaging analysis show a range of aspect ratio from 3 to 50, while a majority of aspect ratios are in the range of 5-20.

[2] = Imaging analysis of aspect ratio
From the text: as §1

[3] = Particle size distribution by Malvern particle size analyzer (sized crystals); settings: after milling in rotor/stator homogenizer and sieving
From the text: The milled crystals were then sieved through two separate sieves to eliminate fines or remnant large crystals. […] As shown, the drug crystal obtained have relatively narrow distribution and the minimal amount of fine material and absence of very fine material (no particles below 9 μm).

CCC(=O)O[C@]1(C(=O)SCF)[C@H](C)C[C@H]2[C@@H]3C[C@H](F)C4=CC(=O)C=C[C@]4(C)[C@@]3(F)[C@@H](O)C[C@@]21C [Batch 1, fluticasone propionate]
D10 [1]: 119 µm | D50 [1]: 365 µm | D90 [1]: 876 µm

CCC(=O)O[C@]1(C(=O)SCF)[C@H](C)C[C@H]2[C@@H]3C[C@H](F)C4=CC(=O)C=C[C@]4(C)[C@@]3(F)[C@@H](O)C[C@@]21C [Batch 2, fluticasone propionate]
D10 [1]: 97 µm | D50 [1]: 323 µm | D90 [1]: 838 µm

CCC(=O)O[C@]1(C(=O)SCF)[C@H](C)C[C@H]2[C@@H]3C[C@H](F)C4=CC(=O)C=C[C@]4(C)[C@@]3(F)[C@@H](O)C[C@@]21C [Batch 3, fluticasone propionate]
D10 [1]: 72 µm | D50 [1]: 253 µm | D90 [1]: 798 µm

CCC(=O)O[C@]1(C(=O)SCF)[C@H](C)C[C@H]2[C@@H]3C[C@H](F)C4=CC(=O)C=C[C@]4(C)[C@@]3(F)[C@@H](O)C[C@@]21C [Batch 4, fluticasone propionate]
D10 [1]: 82 µm | D50 [1]: 288 µm | D90 [1]: 820 µm

CCC(=O)O[C@]1(C(=O)SCF)[C@H](C)C[C@H]2[C@@H]3C[C@H](F)C4=CC(=O)C=C[C@]4(C)[C@@]3(F)[C@@H](O)C[C@@]21C [recrystallized fluticasone propionate, fluticasone propionate]
aspect ratio, majority ([2]; majority of aspect ratios): 5-20 | aspect ratio, range ([2]; whole range): 3 to 50

CCC(=O)O[C@]1(C(=O)SCF)[C@H](C)C[C@H]2[C@@H]3C[C@H](F)C4=CC(=O)C=C[C@]4(C)[C@@]3(F)[C@@H](O)C[C@@]21C [resized drug crystals, fluticasone propionate]
smallest particle size (no particles below) [3]: ≥ 9 μm
